The text below walks through data of patent US20110206647A1, “Modulation of Angiogenesis” (ABT Holding Company, priority 2010, published 2011).

Assay [1] deals with human umbilical vein endothelial cell (HUVEC). As to the kind of experiment: in vitro HUVEC angiogenesis (tube formation) assay. The following applies: for induction of angiogenesis by factor added to basal media: MultiStem basal media, IL-8 4000 pg/ml, CXCL5 150 pg/ml. It is filed as cell-based. On the procedure: Growth factor-reduced Matrigel (BD Bioscience, San Jose, Calif.) was thawed on ice at 4° C. overnight and used at a concentration of 6.0-6.5 mg/ml, diluted on ice using ice-cold 1×PBS. Four-hundred microliters of Matrigel was distributed into the inner wells of a 24-well tissue culture plate and allowed to solidify for 1 hour at 37° C. Addition of Matrigel was done on ice and outer wells of plate were filled with 1 ml of 1×PBS.
HUVECs were harvested according to the following protocol: Cells were washed with 1×PBS followed by a brief rinse with 0.25× trypsin-EDTA and then quenched using the 1×PBS (with residual serum) wash. Cells were resuspended in endothelial cell basal media (EBM) and counted. HUVECs were added to the CM, other experimental conditions and controls at a concentration of 55,000 cells/ml/well. Each sample and control was assayed in triplicate. Plates were incubated for 6 hours or 18 hours at 5% CO2 and 37° C. to allow for tube formation. Four fields per well were analyzed for a total of 12 fields. Pictures were taken at using 10× objective. Angiogenesis was scored by counting the number of tubes formed between cells. Results are expressed as average tubes formed per field +/−SEM.
To test whether MultiStem secretes factors which promote angiogenesis, an in vitro angiogenesis assay using conditioned media from MultiStem was utilized. MultiStem were plated under normal conditions for 24 hours. The cells were then transferred to serum-free conditions to generate conditioned media for four days. This media was then tested for angiogenic activity in an in vitro tube formation assay. […] HUVECs were plated in conditioned media, basal media or endothelial growth media for 18 hours. Angiogenesis was measured as the average number of tubes formed per field of view for each condition. In the absence of any additional factors, the presence of serum alone in basal media can induce angiogenesis. Therefore, serum-free media was used for all the experiments.

In the next assay the test system is MultiStem. As to the kind of experiment: RT-PCR analysis of pro-angiogenic gene expression in treated MultiStem. Format: cell-based, human. Here is the method:
FIG. 7—Treatment of MultiStem with Cytomix increases the expression of pro-angiogenic molecules in vitro. MultiStem was grown for three days and then treated with Cytomix (10 ng/mL TNF-α, IL-1β and IFNγ) for 24, 48, 72 hrs. The cells were subsequently collected for RT-PCR analysis for pro-angiogenic gene expression.
FIGS. 10A-C—Pre-treatment of MultiStem with prostaglandin F or latanoprost (prostaglandin F agonist) increases expression of the angiogenic factors by MultiStem in vitro. […] MultiStem was treated with a dose range of Latanoprost for 24, 48 or 72 hours. Gene expression of pro-angiogenic factors was then analyzed by RT-PCR. Gene expression of KITLG (A), HGF and VEGF (B), and Il-8 (C) were all increased.

Setting [2] is: MultiStem treated 24, 48, 72 hrs.
Where [3] appears, read: MultiStem treated 24, 48 or 72 hours.

Take `CC(C)OC(=O)CCC/C=C\C[C@@H]1[C@@H](CC[C@@H](O)CCc2ccccc2)[C@H](O)C[C@@H]1O` [latanoprost]: the “angiogenesis, CM from untreated cells with agent added after collection vs CM alone” value in assay [1] (1 uM added to media after collection) was “equal levels”. Besides, in assay [1] (1 uM in basal media, no cells), the “tube formation, basal media with added agent” value was “did no induce significant tube formation”. Moreover, in assay [1] (MultiStem cultured three days with 1 uM, serum-free CM), the “HUVEC tube formation, conditioned media from treated MultiStem vs untreated” value is on record as “increased modestly”. Also, in the assay with MultiStem (setting [2]), the HGF gene expression result is “increased” and the IL-8 gene expression entry is reported as “increased”. For the same compound, the “VEGF (VEGF A) gene expression” value in the assay on MultiStem (setting [3]) is reported as “increased”. Moreover, in the assay with MultiStem (MultiStem treated 24, 48 or 72 hours, dose range), the KITLG gene expression entry is given as “increased”.

Take “CXCL5: angiogenic cytokine added to MultiStem basal media (150 pg/ml)”: the “induction of angiogenesis by factor added to basal media” value in assay [1] was “not sufficient to induce angiogenesis”.

As for “IL-8: interleukin 8 added to MultiStem basal media (4000 pg/ml)”, in assay [1], the “induction of angiogenesis by factor added to basal media” value is on record as “not sufficient to induce angiogenesis”.

prostaglandin F: the “VEGF (VEGF A) gene expression” value with MultiStem (setting [3]) is recorded as “increased”.
